Assay results as given in US20180170983A1, “New Use of Cell-Permeable Peptide Inhibitors of the JNK Signal Transduction Pathway for the Treatment of Mild Cognitive Impairment” (Xigen Inflammation Ltd., priority 2015, published 2018).
Each block holds one compound with its values, some of them ahead of it. Square brackets hold non-standard residues; d marks the D form. Ends that are not written are not given here.

Experiments:
JNK = settings: JBDs of IB1 and IB2 vs c-Jun or ATF2; cited from earlier work
βTC-3 cell cultures = test: Cellular import of fluorescein-labeled TAT and TAT-IB1(s) peptides; type: cell-based; settings: for entry of fluorescein labeled peptide into cells: labeled peptides (1 PM), BSA 1 μM, βTC-3 cells
Experimental: The ability of the L- and D-enantiomeric forms of TAT and TAT-IB(s) peptides (“TAT-IB peptides”) to enter cells was evaluated. L-TAT, D-TAT, L-TAT-IB1(s), and D-TAT-IB1(s) peptides [SEQ ID NOs: 5, 6, 9 and 12, respectively] were labeled by N-terminal addition of a glycine residue conjugated to fluorescein. Labeled peptides (1 PM) were added to βTC-3 cell cultures, which were maintained as described in Example 3. At predetermined times cells were washed with PBS and fixed for five minutes in ice-cold methanol-acetone (1:1) before being examined under a fluorescence microscope. Fluorescein-labeled BSA (1 μM, 12 moles/mole BSA) was used as a control.
Little to no signal was present at 48 hours.
Fluorescent signals from these all-D retro-inverso peptides were still very strong 1 week later, and the signal was only slightly diminished at 2 weeks post treatment.

hippocampal CA1 neurons = settings: in vivo, transient global ischemia; cited from earlier work
[1] = system: cultured chick embryonic dorsal root ganglion, sympathetic, ciliary and motor neurons; settings: cited from earlier work
[2] = system: primary embryonic cultures and differentiated PC12 cells; settings: at dosages that inhibit activation of JNKs; after trophic withdrawal and in mice treated with 1-methyl-4-phenyl tetrahydropyridine; cited from earlier work
βTC-3 cells = test: IL-1β induced pancreatic beta-cell death, peptide addition; type: cell-based; settings: one single addition of peptide 1 μM, two days of incubation with IL-1β
Experimental: Inhibition of IL-1β induced pancreatic beta-cell death by the D-TAT-IB1(s) peptide was analyzed. βTC-3 cells were incubated as described above for 30 minutes with one single addition of the indicated peptides (1 μM), then IL-1 (10 ng/ml) was added.
Apoptotic cells were then counted after two days of incubation with IL-1β by use of Propidium Iodide and Hoechst 33342 nuclear staining. A minimum of 1,000 cells were counted for each experiment. Standard Error of the Means (SEM) are indicated, n=5.
Long term inhibition of IL-1P induced cell-death by the D-TAT-IB1 peptide was also analyzed. βTC-3 cells were incubated as above for 30 minutes with one single addition of the indicated peptides (1 μM), then […] (10 ng/ml) was added, followed by addition of the cytokine every two days. Apoptotic cells were then counted after 15 days of incubation with IL-1 by use of propidium iodide and Hoechst 33342 nuclear staining. […] A minimum of 1.000 cells were counted for each experiment.

Compound: PGTGCGDTYRPKRPTTLNLFPQVPRSQDT (Description of sequence peptide IB1-long (see Table 1))
efficiency in binding JNK relative to c-Jun or ATF2 (JNK): approximately 100 fold

Compound: GRKKRRQRRRPPRPKRPTTLNLFPQVPRSQD [L-TAT-IB1(s)]
entry of fluorescein labeled peptide into cells (βTC-3 cell cultures): efficiently and rapidly (less than five minutes) entered cells

Compound: IPSPSVEEPHKHRPTTLRLTTLGAQDS (Description of sequence Peptide IB2-long (see Table 1))
efficiency in binding JNK relative to c-Jun or ATF2 (JNK): approximately 100 fold

stability inside the cells (βTC-3 cell cultures): extremely stable inside the cells
Compound: CC(C)C[C@@H](NC(=O)[C@@H](Cc1ccccc1)NC(=O)[C@H]1CCCN1C(=O)[C@@H](CCC(N)=O)NC(=O)[C@H](NC(=O)[C@H]1CCCN1C(=O)[C@@H](CCCNC(=N)N)NC(=O)[C@@H](CO)NC(=O)[C@@H](CCC(N)=O)NC(=O)[C@H](N)CC(=O)O)C(C)C)C(=O)N[C@H](CC(N)=O)C(=O)N[C@H](CC(C)C)C(=O)N[C@@H](C(=O)N[C@@H](C(=O)N1CCC[C@@H]1C(=O)N[C@H](CCCNC(=N)N)C(=O)N[C@H](CCCCN)C(=O)N1CCC[C@@H]1C(=O)N[C@H](CCCNC(=N)N)C(=O)N1CCC[C@@H]1C(=O)N1CCC[C@@H]1C(=O)N[C@H](CCCNC(=N)N)C(=O)N[C@H](CCCNC(=N)N)C(=O)N[C@H](CCCNC(=N)N)C(=O)N[C@H](CCC(N)=O)C(=O)N[C@H](CCCNC(=N)N)C(=O)N[C@H](CCCNC(=N)N)C(=O)N[C@H](CCCCN)C(=O)N[C@H](CCCCN)C(=O)N[C@H](CCCNC(=N)N)C(=O)NCC(=O)O)[C@H](C)O)[C@H](C)O [XG-102]

Compound: N#CC(c1ccnc(NCCc2cccnc2)n1)c1nc2ccccc2s1 (stereo not shown) [AS601245]
protection against the delayed loss of hippocampal CA1 neurons (hippocampal CA1 neurons): provided significant protection

Compound: CCSCc1ccc2c(c1)c1c3c(c4c5cc(CSCC)ccc5n5c4c1n2[C@H]1C[C@](O)(C(=O)OC)[C@]5(C)O1)CNC3=O [CEP-1347]
long term-survival of neurons [1]: can promote long term-survival | neuronal survival [2]: promotes neuronal survival

Compound: TDQSRPVQPFLNLTTPRKPRYTDPPRRRQRRKKRG ([dT][dD][dQ][dS][dR][dP][dV][dQ][dP][dF][dL][dN][dL][dT][dT][dP][dR][dK][dP][dR][dY][dT][dD][dP][dP][dR][dR][dR][dQ][dR][dR][dK][dK][dR]G) [D-TAT-IB1]
IL-1 induced apoptosis (βTC-3 cells): decreased IL-1 induced apoptosis to a similar extent as L-TAT-IB peptides

Compound: GRKKRRQRRR (Description of sequence Peptide L-TAT (see Table 1))
entry of fluorescein labeled peptide into cells (βTC-3 cell cultures): efficiently and rapidly (less than five minutes) entered cells

Compound: RRRQRRKKRG (D-amino acids; Description of sequence Peptide D-TAT (see Table 1); MUTAGEN (1)..(10) all amino acids are D-amino acids)
stability inside the cells (βTC-3 cell cultures): extremely stable inside the cells
